Test results as given in patent US20170304388A1, “NEW INDICATION OF CARDIOVASCULAR DRUGS FOR PREPARATION OF CANCER INHIBITION PHARMACEUTICAL COMPOSITION” (LAUNX BIOMEDICAL CO., LTD., priority 2014, published 2017).
Counter-ions that a name gives are not always drawn.

Tested on: cancer cell lines
Assay: Growth inhibitory effects on the panel of cancer cell lines
Assay type: cell-based
Conditions: drug 10 μM, 72 hours, WST-1
Excerpt: Subculture the different types of cancer cells.
For cell viability analysis, the cardiovascular drugs include peripheral vasodilator reaming enhancer, angiotensin converting agent inhibitor, hypotension and shock therapeutic agent, diuretic, antiarrhythmic agent, antiarralciton drug, antihypertensive agent, anticoagulant thrombolytic agent, cardiac tonic, intravenous (hemorrhoids) therapeutic agent, are used to test the inhibition effect of cancer cell.

Q: For `CN[C@@H]1[C@H](O)[C@H](NC)[C@H]2O[C@@]3(O)C(=O)C[C@@H](C)O[C@H]3O[C@@H]2[C@H]1O` [Spectinomycin hydrochloride], which “inhibition effect on different cancer cell lines (in words)” value is on record?
A: significant inhibition effect

Q: Which “inhibition effect on different cancer cell lines (in words)” value does the source give for `CC1=NN(c2ccccc2)C(=O)C1` [Edaravone (MCI-186), Edaravone] here?
A: significant inhibition effect

Q: `C=C(c1ccc(C(=O)O)cc1)c1cc2c(cc1C)C(C)(C)CCC2(C)C` [Bexarotene] was tested. Which “inhibition effect on different cancer cell lines (in words)” value did it give?
A: significant inhibition effect

Q: `Cc1nc2c([nH]1)-c1ccccc1N(C(=O)c1ccc(NC(=O)c3ccccc3-c3ccccc3)cc1)CC2` [Conivaptan HCl (Vaprisol), Conivaptan HCl] was tested. Which “inhibition effect on different cancer cell lines (in words)” value did it give?
A: significant inhibition effect

Q: `C[C@@H]1C(=O)O[C@H]2C[C@@]34[C@H]5C[C@@H](C(C)(C)C)[C@]36[C@@H](OC(=O)[C@@H]6O)O[C@@]4(C(=O)O5)[C@]21O` [Ginkgolide A] was tested. Which “inhibition effect on different cancer cell lines (in words)” value did it give?
A: significant inhibition effect

Q: For `NS(=O)(=O)c1cc2c(cc1C(F)(F)F)NC(Cc1ccccc1)NS2(=O)=O` (stereo not shown) [Bendroflumethiazide], which “inhibition effect on different cancer cell lines (in words)” value is on record?
A: significant inhibition effect

Q: Which “inhibition effect on different cancer cell lines (in words)” value does the source give for `NS(=O)(=O)c1cc2c(cc1Cl)NCNS2(=O)=O` [Hydrochlorothiazide] here?
A: significant inhibition effect

Q: `CCOCC(O)COc1ccc(NC(=O)CC[S+](C)C)cc1` (stereo not shown) [Suplatast tosylate] was tested. Which “inhibition effect on different cancer cell lines (in words)” value did it give?
A: significant inhibition effect

Q: Which “inhibition effect on different cancer cell lines (in words)” value does the source give for `COc1ccc(-n2nc(C(N)=O)c3c2C(=O)N(c2ccc(N4CCCCC4=O)cc2)CC3)cc1` [Apixaban] here?
A: significant inhibition effect

Q: With `C[C@@H](CN1CC(=O)NC(=O)C1)N1CC(=O)NC(=O)C1` [Dexrazoxane Hydrochloride] as the compound, how does the “inhibition effect on different cancer cell lines (in words)” value read?
A: significant inhibition effect

Q: For “Almotriptan malate [Almotriptan malate (Axert)]”, which “inhibition effect on different cancer cell lines (in words)” value is on record?
A: significant inhibition effect

Q: For `CC(C)NCC(O)COc1ccc(CCOCC2CC2)cc1` (stereo not shown) [Betaxolol hydrochloride (Betoptic), Betaxolol hydrochloride], which “inhibition effect on different cancer cell lines (in words)” value is on record?
A: significant inhibition effect

Q: With `O=C1CCc2cc(OCCCCc3nnnn3C3CCCCC3)ccc2N1` [Cilostazol] as the compound, how does the “inhibition effect on different cancer cell lines (in words)” value read?
A: significant inhibition effect

Q: Which “inhibition effect on different cancer cell lines (in words)” value does the source give for `O=C(O)[C@H](CC(=O)N1C[C@H]2CCCC[C@H]2C1)Cc1ccccc1` [Mitiglinide calcium] here?
A: significant inhibition effect

Q: How did the “inhibition effect on different cancer cell lines (in words)” value turn out when `O=C(O[C@H]1C[C@H]2CC[C@@H](C1)[N+]21CCCC1)C(O)(c1ccccc1)c1ccccc1` [Trospium chloride (Sanctura), Trospium chloride] was run?
A: significant inhibition effect

Q: Which “inhibition effect on different cancer cell lines (in words)” value does the source give for `Cc1cn([C@H]2C[C@H](N=[N+]=[N-])[C@@H](CO)O2)c(=O)[nH]c1=O` [Zidovudine (Retrovir), Zidovudine] here?
A: significant inhibition effect

Q: With `O=C1c2ccccc2C(=O)C1c1ccccc1` [Phenindione (Rectadione), Phenindione] as the compound, how does the “inhibition effect on different cancer cell lines (in words)” value read?
A: significant inhibition effect

Q: How did the “inhibition effect on different cancer cell lines (in words)” value turn out when `Cc1c(O)c(=O)ccn1C` [Deferiprone] was run?
A: significant inhibition effect

Q: `CCCCC(=O)N(Cc1ccc(-c2ccccc2-c2nnn[nH]2)cc1)[C@H](C(=O)O)C(C)C` [Valsartan (Diovan), Valsartan] was tested. Which “inhibition effect on different cancer cell lines (in words)” value did it give?
A: significant inhibition effect

Q: Which “inhibition effect on different cancer cell lines (in words)” value does the source give for `CN(Cc1cc(Br)cc(Br)c1N)C1CCCCC1` [Bromhexine HCl] here?
A: significant inhibition effect

Q: `O=C1c2c(O)ccc(O)c2C(=O)c2c(NCCNCCO)ccc(NCCNCCO)c21` [Mitoxantrone Hydrochloride] was tested. Which “inhibition effect on different cancer cell lines (in words)” value did it give?
A: significant inhibition effect

Q: How did the “inhibition effect on different cancer cell lines (in words)” value turn out when `CC(=O)Oc1cc2c(s1)CCN(C(C(=O)C1CC1)c1ccccc1F)C2` (stereo not shown) [Prasugrel (Effient), Prasugrel] was run?
A: significant inhibition effect

Q: With `NS(=O)(=O)c1cc2c(cc1Cl)N=C(CSCc1ccccc1)NS2(=O)=O` [Benzthiazide] as the compound, how does the “inhibition effect on different cancer cell lines (in words)” value read?
A: significant inhibition effect

Q: Which “inhibition effect on different cancer cell lines (in words)” value does the source give for `C=C1CC[C@H](O)C/C1=C/C=C1\CCC[C@]2(C)[C@@H]([C@H](C)CCCC(C)C)CC[C@@H]12` [Vitamin D3 (Cholecalciferol), Cholecalciferol] here?
A: significant inhibition effect

Q: With `N=C(N)NC(=O)c1nc(Cl)c(N)nc1N` [Amiloride hydrochloride dihydrate] as the compound, how does the “inhibition effect on different cancer cell lines (in words)” value read?
A: significant inhibition effect

Q: How did the “inhibition effect on different cancer cell lines (in words)” value turn out when `COC(=O)[C@H]1[C@H]2C[C@@H]3c4[nH]c5cc(OC)ccc5c4CCN3C[C@H]2C[C@@H](OC(=O)c2cc(OC)c(OC)c(OC)c2)[C@@H]1OC` [Reserpine] was run?
A: significant inhibition effect

Q: Which “inhibition effect on different cancer cell lines (in words)” value does the source give for `CCCc1nc2c(C)cc(-c3nc4ccccc4n3C)cc2n1Cc1ccc(-c2ccccc2C(=O)O)cc1` [Telmisartan (Micardis), Telmisartan] here?
A: significant inhibition effect

Q: With `Oc1ccc(OC2CCCCO2)cc1` (stereo not shown) [Deoxyarbutin] as the compound, how does the “inhibition effect on different cancer cell lines (in words)” value read?
A: significant inhibition effect

Q: For `CCOc1nc2cccc(C(=O)OCc3oc(=O)oc3C)c2n1Cc1ccc(-c2ccccc2-c2noc(=O)[nH]2)cc1` [Azilsartan Medoxomil (TAK-491), Azilsartan Medoxomil], which “inhibition effect on different cancer cell lines (in words)” value is on record?
A: significant inhibition effect

Q: `COc1ccc(CN2CCN(C(c3ccc(F)cc3)c3ccc(F)cc3)CC2)c(OC)c1OC` [Lomerizine HCl] was tested. Which “inhibition effect on different cancer cell lines (in words)” value did it give?
A: significant inhibition effect

Q: `C=CCOc1ccccc1OCC(O)CNC(C)C` (stereo not shown) [Oxprenolol HCl] was tested. Which “inhibition effect on different cancer cell lines (in words)” value did it give?
A: significant inhibition effect

Q: How did the “inhibition effect on different cancer cell lines (in words)” value turn out when `COc1ccc(OC)c(C(O)C(C)N)c1` (stereo not shown) [Methoxamine HCl] was run?
A: significant inhibition effect

Q: With `NC12CC3CC(CC(C3)C1)C2` [Amantadine hydrochloride (Symmetrel), Amantadine hydrochloride] as the compound, how does the “inhibition effect on different cancer cell lines (in words)” value read?
A: significant inhibition effect

Q: Which “inhibition effect on different cancer cell lines (in words)” value does the source give for `C=C[C@H]1C[N@@]2CC[C@H]1C[C@H]2[C@H](O)c1ccnc2ccc(OC)cc12` [Quinine hydrochloride dihydrate] here?
A: significant inhibition effect

Q: `Nc1cccc2c1CN(C1CCC(=O)NC1=O)C2=O` (stereo not shown) [Lenalidomide] was tested. Which “inhibition effect on different cancer cell lines (in words)” value did it give?
A: significant inhibition effect

Q: How did the “inhibition effect on different cancer cell lines (in words)” value turn out when `NCCc1c[nH]cn1.O=P(O)(O)O` [Histamine Phosphate] was run?
A: significant inhibition effect

Q: Which “inhibition effect on different cancer cell lines (in words)” value does the source give for `CCC(CC)[C@H](NC(C)=O)[C@@H]1[C@H](O)[C@@H](C(=O)O)C[C@H]1N=C(N)N.O.O.O` [Peramivir Trihydrate] here?
A: significant inhibition effect

Q: How did the “inhibition effect on different cancer cell lines (in words)” value turn out when `CN1C(CCl)Nc2cc(Cl)c(S(N)(=O)=O)cc2S1(=O)=O` (stereo not shown) [Methyclothiazide] was run?
A: significant inhibition effect

Q: With `CS(=O)(=O)c1ccc([C@@H](O)[C@@H](CO)NC(=O)C(Cl)Cl)cc1` [Thiamphenicol (Thiophenicol), Thiamphenicol] as the compound, how does the “inhibition effect on different cancer cell lines (in words)” value read?
A: significant inhibition effect

Q: Which “inhibition effect on different cancer cell lines (in words)” value does the source give for `CNC[C@H](O)[C@@H](O)[C@H](O)[C@H](O)CO.CNC[C@H](O)[C@@H](O)[C@H](O)[C@H](O)CO.C[C@@H](O[C@H]1OCCN(Cc2nn(P(=O)(O)O)c(=O)[nH]2)[C@H]1c1ccc(F)cc1)c1cc(C(F)(F)F)cc(C(F)(F)F)c1` [Fosaprepitant dimeglumine] here?
A: significant inhibition effect

Q: For `COc1ccccc1OCC(O)CN1CCN(CC(=O)Nc2c(C)cccc2C)CC1` (stereo not shown) [Ranolazine dihydrochloride], which “inhibition effect on different cancer cell lines (in words)” value is on record?
A: significant inhibition effect

Q: Which “inhibition effect on different cancer cell lines (in words)” value does the source give for `CC(N/C(=N\C#N)Nc1ccncc1)C(C)(C)C` (stereo not shown) [Pinacidil] here?
A: significant inhibition effect

Q: `O=c1c(-c2ccc(O)cc2)coc2cc(O)ccc12` [Daidzein] was tested. Which “inhibition effect on different cancer cell lines (in words)” value did it give?
A: significant inhibition effect

Q: For `CN(CCOc1ccc(NS(C)(=O)=O)cc1)CCc1ccc(NS(C)(=O)=O)cc1` [Dofetilide (Tikosyn), Dofetilide], which “inhibition effect on different cancer cell lines (in words)” value is on record?
A: significant inhibition effect

Q: For `O=C1[C@H](CC[C@H](O)c2ccc(F)cc2)[C@@H](c2ccc(O)cc2)N1c1ccc(F)cc1` [Ezetimibe (Zetia), Ezetimibe], which “inhibition effect on different cancer cell lines (in words)” value is on record?
A: significant inhibition effect

Q: How did the “inhibition effect on different cancer cell lines (in words)” value turn out when `Nc1ccc(/N=N/c2ccccc2)c(N)n1` [Phenazopyridine HCl] was run?
A: significant inhibition effect

Q: For `O=S(=O)(O)c1cc(O)ccc1O` [Ethamsylate], which “inhibition effect on different cancer cell lines (in words)” value is on record?
A: significant inhibition effect

Q: `CS(=O)(=O)OCCCCOS(C)(=O)=O` [Busulfan (Myleran, Busulfex), Busulfan] was tested. Which “inhibition effect on different cancer cell lines (in words)” value did it give?
A: significant inhibition effect

Q: For `CC1CNc2c(cccc2S(=O)(=O)N[C@@H](CCCNC(=N)N)C(=O)N2CC[C@@H](C)C[C@@H]2C(=O)O)C1` (stereo partly shown) [Argatroban], which “inhibition effect on different cancer cell lines (in words)” value is on record?
A: significant inhibition effect

Q: For Ibutilide fumarate, which “inhibition effect on different cancer cell lines (in words)” value is on record?
A: significant inhibition effect

Q: Which “inhibition effect on different cancer cell lines (in words)” value does the source give for `COCCc1ccc(OCC(O)CNC(C)C)cc1` (stereo not shown) [toprolol tartrate] here?
A: significant inhibition effect

Q: Which “inhibition effect on different cancer cell lines (in words)” value does the source give for `CS(=O)(=O)Nc1ccc([N+](=O)[O-])cc1Oc1ccccc1` [Nimesulide] here?
A: significant inhibition effect

Q: With `CC(C)NC[C@@H](O)COc1ccc(CC(N)=O)cc1` [(R)-(+)-Atenolol] as the compound, how does the “inhibition effect on different cancer cell lines (in words)” value read?
A: significant inhibition effect

Q: `CN(C)C(=O)Oc1ccc[n+](C)c1` [Pyridostigmine Bromide (Mestinon), Pyridostigmine Bromide] was tested. Which “inhibition effect on different cancer cell lines (in words)” value did it give?
A: significant inhibition effect

Q: `CC(C)NCC(O)c1ccccc1Cl` (stereo not shown) [Clorprenaline HCL] was tested. Which “inhibition effect on different cancer cell lines (in words)” value did it give?
A: significant inhibition effect
